Molecules are shown by their SMILES. Some results are limits rather than exact numbers.

This assay addresses human hematopoietic synthase (Homo sapiens, UniProt O60760). In words: Hematopoietic synthase inhibitory activity (Experiment 1). The class given is biochemical. The conditions noted are these: [14C] prostaglandin H2 10 μM, preincubated at 25° C. for 5 minutes, 1 minute reaction; read-out: Concentration of Pharmaceutical Compound Required to Inhibit 50% of Hematopoietic Synthase. How it is done:
Experiment 1 was carried out according to the method of Urade, Y. et al. (J. Biol. Chem. 262, 3820-3825, (1987)). More specifically, the reaction mixture (49 μL); 100 mM Tris-HCl (pH 8.0), 1 mM reduced glutathione, 0.1 mg/mL γ-globulin, and human hematopoietic synthase (quantum sufficient), and a test compound (final concentration: 0.01-100 μM) were preincubated at 25° C. for 5 minutes. In place of the test compound, a DMSO solution (final concentration: 1%) was used in the solvent control group (Control Group). Subsequently, 1 μL of [^14C] prostaglandin H2 (final concentration: 10 μM) was added to start the reaction. One minute after the start of the reaction, 250 μL of a reaction stopper solution (diethylether/methanol/1M citric acid (30/4/1) cooled to −20° C. was added to stop the reaction.
Thereafter, 50 μL of the upper layer portion (organic solvent phase) was applied to a TLC plate and developed at −20° C. for 45 minutes (developer: diethylether/methanol/acetic acid (capacity ratio=90/2/1)). After drying the plate, the plate was exposed to an imaging plate for 1 to 24 hours, and the radioactivity corresponding to prostaglandin D2 was analyzed using an image analyzer (product of FUJIFILM Corporation). The area (%) occupied by the prostaglandin D2 band per lane was calculated, and the concentration of the test compound required to inhibit 50% of the hematopoietic synthase (IC50 value) was calculated by comparison with the Control group in each experiment.

human hematopoietic synthase, sequence (O60760 whole entry): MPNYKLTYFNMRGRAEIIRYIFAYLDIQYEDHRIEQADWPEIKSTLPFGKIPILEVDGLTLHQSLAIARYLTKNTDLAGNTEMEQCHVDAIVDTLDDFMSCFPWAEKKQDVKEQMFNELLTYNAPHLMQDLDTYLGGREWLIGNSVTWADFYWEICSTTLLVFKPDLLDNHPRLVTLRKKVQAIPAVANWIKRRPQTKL

In the case of `Cc1[nH]c(C(=O)Nc2ccc3ncsc3c2)c(C)c1-c1nc2cc(C(=O)c3ccccc3)ccc2[nH]1` [Compound 31, N-(Benzothiazole-6-yl)-4-(5-benzoylbenzimidazol-2-yl)-3,5-dimethylpyrrole-2-carboxamide], the IC50 came out at 90 nM.

As for `Cc1[nH]c(C(=O)O)c(C)c1-c1nc2cc(C(=O)c3ccccc3)ccc2[nH]1` [Compound 10, 4-(5-Benzoylbenzimidazol-2-yl)-3,5-dimethylpyrrole-2-carboxylic acid], the IC50 is 436 nM.

For the compound `COc1ccc(CNC(=O)c2[nH]c(C)c(-c3nc4cc(C(=O)c5ccccc5)ccc4[nH]3)c2C)cc1OC` [Compound 36, N-(3,4-Dimethoxybenzyl)-4-(5-benzoylbenzimidazol-2-yl)-3,5-dimethylpyrrole-2-carboxamide], the IC50 was 195 nM.

For `Cc1[nH]c(C(=O)NCc2ccc(Cl)c(Cl)c2)c(C)c1-c1nc2cc(C(=O)c3ccccc3)ccc2[nH]1` [Compound 35, N-(3,4-Dichlorobenzyl)-4-(5-benzoylbenzimidazol-2-yl)-3,5-dimethylpyrrole-2-carboxamide], the IC50 stood at 746 nM.

`COCCCNC(=O)C1CCN(C(=O)c2[nH]c(C)c(-c3nc4cc(C(=O)c5ccccc5)ccc4[nH]3)c2C)CC1` [Compound 49, N-(3-Methoxypropyl)-1-((4-(5-benzoylbenzimidazol-2-yl)-3,5-dimethylpyrrol-2-yl)-carbonyl)piperidine-4-carboxamide]: the IC50 was determined as 649 nM.

In the case of `Cc1[nH]c(C(=O)NCCCN(C)C)c(C)c1-c1nc2cc(C(=O)c3ccccc3)ccc2[nH]1` [Compound 17, N-(3-Dimethylaminopropyl)-4-(5-benzoylbenzimidazol-2-yl)-3,5-dimethylpyrrole-2-carboxamide], the IC50 came to 124 nM.

`Cc1[nH]c(C(=O)N(C)CCN(C)C)c(C)c1-c1nc2cc(C(=O)c3ccccc3)ccc2[nH]1` [Compound 11, N-Methyl-N-(2-dimethylaminoethyl)-4-(5-benzoylbenzimidazol-2-yl)-3,5-dimethylpyrrole-2-carboxamide]: the IC50 came to 269 nM.

Consider `CCOC(=O)c1[nH]c(C)c(-c2nc3cc(Sc4ccncc4)c(Oc4ccccc4)cc3[nH]2)c1C` [Comparative Example 1, 4-(5-(4-Pyridylsulfenyl)-6-phenoxybenzimidazole-2-yl)-3,5-dimethylpyrrole-2-carboxylic acid ethyl ester, reference compound], for which the IC50 is above 30000 nM.

As for `O=C(c1ccccc1)c1ccc2[nH]c(-c3ccc(C(=O)N4CCSC4)o3)nc2c1` [Compound 63], the IC50 was 1250 nM.

Consider `Cc1[nH]c(C(=O)N2CCC(C(=O)N(C)CCN(C)C)CC2)c(C)c1-c1nc2cc(C(=O)c3ccccc3)ccc2[nH]1` [Compound 47, N-Methyl-N-(2-dimethylaminoethyl)-1-((4-(5-benzoylbenzimidazol-2-yl)-3,5-dimethylpyrrol-2-yl)-carbonyl)piperidine-4-carboxamide], for which the IC50 was found to be 269 nM.

Consider `CON(C)C(=O)c1[nH]c(C)c(-c2nc3cc(Oc4ccccc4)ccc3[nH]2)c1C` [Compound 74, (N-Methoxy-N-methyl)-4-(5-phenoxybenzimidazole-2-yl)-3,5-dimethylpyrrole-2-carboxamide], for which the IC50 is 263 nM.

Regarding `Cc1[nH]c(C(=O)N2CCOCC2)c(C)c1-c1nc2cc(Oc3ccccc3)ccc2[nH]1` [Compound 71, ((4-(5-Phenoxybenzimidazole-2-yl)-3,5-dimethylpyrrol-2-yl)-2-carbonyl)morpholine], the IC50 was 870 nM.

For `Cc1[nH]c(C(=O)Nc2ccc(C#N)cc2)c(C)c1-c1nc2cc(C(=O)c3ccccc3)ccc2[nH]1` [Compound 27, N-(4-Cyanophenyl)-4-(5-benzoylbenzimidazol-2-yl)-3,5-dimethylpyrrole-2-carboxamide], the IC50 is 309 nM.

On to `NC(=O)c1ccc(-c2nc3cc(C(=O)c4ccccc4)ccc3[nH]2)o1` [Compound 60, 5-(5-Benzoylbenzimidazol-2-yl)-furan-2-carboxamide], for which the IC50 is 4360 nM.

For the compound `Cc1[nH]c(C(=O)NCCN2CCCCC2)c(C)c1-c1nc2cc(C(=O)c3ccccc3)ccc2[nH]1` [Compound 24, N-(2-Piperidine-1-yl-ethyl)-4-(5-benzoylbenzimidazol-2-yl)-3,5-dimethylpyrrole-2-carboxamide], the IC50 was 496 nM.

Take `COCCCNC(=O)c1[nH]c(C)c(-c2nc3cc(C(=O)c4ccccc4)ccc3[nH]2)c1C` [Compound 16, N-(3-Methoxypropyl)-4-(5-benzoylbenzimidazol-2-yl)-3,5-dimethylpyrrole-2-carboxamide]: the IC50 turned out to be 2280 nM.

Consider `CN(C)Cc1ccc(-c2nc3cc(C(=O)c4ccccc4)ccc3[nH]2)o1` [Compound 56, 2-(5-Dimethylaminomethyl-furan-2-yl)-5-benzoylbenzimidazole], for which the IC50 came to 4780 nM.

As for `CNC(=O)c1[nH]c(C)c(-c2nc3cc(C(=O)c4ccccc4)ccc3[nH]2)c1C` [Compound 66, (N-Methyl)-4-(5-benzoylbenzimidazol-2-yl)-3,5-dimethylpyrrole-2-carboxamide], the IC50 was 77 nM.

As for `Cc1cc(NC(=O)c2[nH]c(C)c(-c3nc4cc(C(=O)c5ccccc5)ccc4[nH]3)c2C)no1` [Compound 26, N-(5-Methylisoxazole-3-yl)-4-(5-benzoylbenzimidazol-2-yl)-3,5-dimethylpyrrole-2-carboxamide], the IC50 is 149 nM.

Take `Cc1[nH]c(C(=O)N2CCCC2)c(C)c1-c1nc2cc(C(=O)c3ccccc3)ccc2[nH]1` [Compound 39, ((4-(5-Benzoylbenzimidazol-2-yl)-3,5-dimethylpyrrol-2-yl)-carbonyl)pyrrolidine]: the IC50 was 351 nM.

In the case of `O=C(c1ccccc1)c1ccc2[nH]c(-c3ccc(C(=O)NCc4ccc5c(c4)OCO5)o3)nc2c1` [Compound 62, N-(3,4-Methylenedioxyphenylmethyl)-5-(5-benzoylbenzimidazol-2-yl)-furan-2-carboxamide], the IC50 was 2430 nM.

Consider `O=C(c1ccccc1)c1ccc2[nH]c(-c3ccc(C(=O)N4CCCC4)o3)nc2c1` [Compound 59], for which the IC50 came out at 3560 nM.

As to `Cc1[nH]c(C(=O)NCC2=NNC(=O)CC2)c(C)c1-c1nc2cc(C(=O)c3ccccc3)ccc2[nH]1` [Compound 38, N-(2,3,4,5-Tetrahydro-3-oxo-pyridazine-6-yl-methyl)-4-(5-benzoylbenzimidazol-2-yl)-3,5-dimethylpyrrole-2-carboxamide], the IC50 stood at 136 nM.

Turning to `Cc1[nH]c(C(=O)N(C)C)c(C)c1-c1nc2cc(C(=O)c3ccccc3)ccc2[nH]1` [Compound 64, (N,N-Dimethyl)-4-(5-benzoylbenzimidazol-2-yl)-3,5-dimethylpyrrole-2-carboxamide], the IC50 was found to be 377 nM.

Consider `CCOC(=O)C1CCN(C(=O)c2[nH]c(C)c(-c3nc4cc(C(=O)c5ccccc5)ccc4[nH]3)c2C)CC1` [Compound 44, ((4-(5-Benzoylbenzimidazol-2-yl)-3,5-dimethylpyrrol-2-yl)-carbonyl)-4-ethoxycarbonylpiperidine], for which the IC50 amounted to 1670 nM.

For the compound `O=C(c1ccccc1)c1ccc2[nH]c(-c3ccc(Br)o3)nc2c1` [Compound 58, 2-(5-Bromo-furan-2-yl)-5-benzoylbenzimidazole], the IC50 was 2370 nM.

Turning to `Cc1[nH]c(C(=O)NCC2CCCCC2)c(C)c1-c1nc2cc(C(=O)c3ccccc3)ccc2[nH]1` [Compound 25, N-(Cyclohexylmethyl)-4-(5-benzoylbenzimidazol-2-yl)-3,5-dimethylpyrrole-2-carboxamide], the IC50 turned out to be 286 nM.

Turning to `CCOC(=O)CCNC(=O)c1[nH]c(C)c(-c2nc3cc(C(=O)c4ccccc4)ccc3[nH]2)c1C` [Compound 19, N-(2-Ethoxycarbonylethyl)-4-(5-benzoylbenzimidazol-2-yl)-3,5-dimethylpyrrole-2-carboxamide], the IC50 stood at 874 nM.

As for `Cc1[nH]c(C(=O)N(C)C)c(C)c1-c1nc2cc(Sc3ccncc3)c(Oc3ccccc3)cc2[nH]1` [Comparative Example 2, (N,N-Dimethyl)-4-(5-(4-pyridylsulfenyl)-6-phenoxybenzimidazole-2-yl)-3,5-dimethylpyrrole-2-carboxamide, reference compound], the IC50 was above 30000 nM.

Consider `Cc1[nH]c(C(=O)N2CCN(c3ccccc3)CC2)c(C)c1-c1nc2cc(C(=O)c3ccccc3)ccc2[nH]1` [Compound 41, ((4-(5-Benzoylbenzimidazol-2-yl)-3,5-dimethylpyrrol-2-yl)-carbonyl)-4-phenylpiperazine], for which the IC50 is 1450 nM.

On to `Cc1[nH]c(C(=O)N2CCC(O)CC2)c(C)c1-c1nc2cc(C(=O)c3ccccc3)ccc2[nH]1` [Compound 43, ((4-(5-Benzoylbenzimidazol-2-yl)-3,5-dimethylpyrrol-2-yl)-carbonyl)-4-hydroxypiperidine], for which the IC50 turned out to be 791 nM.

Regarding `Cc1oc(C(=O)NCc2ccc3c(c2)OCO3)c(C)c1-c1nc2cc(C(=O)c3ccccc3)ccc2[nH]1` [Compound 4, N-(3,4-Methylenedioxyphenyl)methyl-4-(5-benzoylbenzimidazol-2-yl)-3,5-dimethylfuran-2-carboxamide], the IC50 stood at 278 nM.

Values taken from patent publication US7951956B2, “Benzoimidazole compound capable of inhibiting prostaglandin D synthetase” (Taiho Pharmaceuticals Co., Ltd., priority 2005, dated 2011).
